Experimental data from patent US6534520B2, “Antiviral compounds” (priority 1997, dated 2003).
In brackets after ≈: the same amount, converted by molar mass. Where two headings read alike, the source gives them in different places.

Experiments:
[1] = system: Parainfluenza; experiment: Antiviral activity against Parainfluenza (CPE inhibition / neutral red); assay type: cell-based
[2] = system: uninfected cells; experiment: Cytotoxicity run with the Influenza B test; assay type: cell-based
Method: (§1) Methods For Assay Of Cytotoxicity
(§2) In the CPE inhibition test, two wells of uninfected cells treated with each concentration of test Compound are run in parallel with the infected, treated wells. At the time CPE is determined microscopically, the toxicity control cells are also examined microscopically for any changes in cell appearance compared to normal control cells run in the same plate. These changes may be enlargement, granularity, cells with ragged edges, a filmy appearance, rounding, detachment from the surface of the well, or other changes. These changes are given a designation of T (100% toxic), PVH (partially toxic-very heavy-80%), PH (partially toxic-heavy-60%), P (partially toxic-40%), PS (partially toxic-slight-20%), or 0 (no toxicity-0%), conforming to the degree of cytotoxicity seen.
(§3) In the neutral red dye uptake phase of the antiviral test described above, the two toxicity control wells also receive neutral red and the degree of color intensity is determined spectrophotometrically. A neutral red CC50 (NRCC50) is subsequently determined.
(§4) C. ^3H Thymidine Uptake Assay
(§5) Flat bottom 96 well plates are plated with 5X10E3 Vero-34 cells/well and 1X10E4 Hs68 or Wi-38 cells/well respectively and incubated overnight at 37° C. and 5% CO2/air. After incubation, the supernatant medium is removed and replaced with test Compound dilutions in 2% DMEM (150 ul). The cells are then incubated 48 hours in a 5% CO2 incubator at 37° C.
(§6) 50 μl/well of 10 uCi/ml solution of [3H]-methyl thymidine (specific activity of approx. 2Ci/mmol) is added to the culture medium and incubated overnight (18 hours) in a 5% CO2 incubator at 37° C.
(§7) Cells are then collected onto a fiberglass filter (Printed Filtermat A 1450-421 Wallac) with a Tomtec cell harvester. Suspended cells are collected directly onto filter while for adherent cells, the medium is first removed, then the cells washed with PBS and trypsinized for 2-3 minutes (50 μl trypsin/well) before collecting.
(§8) Filters are dried for 1 hour at 37-40° C. and then placed into bags (1450-microbeta #1450-432 Wallac) with 4.5 ml of Betascint and counts obtained with Microbeta 1450 Wallac (protocol 1).
(§9) The percent of cell proliferation is determined by comparison to the control (no test Compound) and thereby establishing 50% inhibitory concentration is established.

[3] = system: HIVTEKI; experiment: Anti-HIV activity against HIVTEKI in PBMCs; settings: for IC50: Human immunodeficiency virus 1, PBMC, read-out: HIVTEKI (PBMCs) IC50
[4] = system: PBMCs; experiment: Cytotoxicity in PBMCs (anti-HIV tests); assay type: cell-based; settings: for HIVTEKI (PBMCs) CC50: HIVTEKI columns
[5] = system: Adenovirus; experiment: Antiviral activity against Adenovirus (CPE inhibition / neutral red); assay type: cell-based
[6] = system: HSV-1; experiment: Antiviral activity against HSV-1 (CPE inhibition / neutral red); assay type: cell-based, herpes simplex virus type 1
[7] = system: uninfected cells
[8] = system: uninfected cells; experiment: Cytotoxicity run with the Influenza A test; assay type: cell-based
Method: as §1, §2, §3, §4, §5, §6, §7, §8, §9

[9] = system: Rhinovirus (RV); experiment: Antiviral activity against Rhinovirus (CPE inhibition / neutral red); assay type: cell-based; settings: for IC50: Enterovirus, read-out: RV IC50
[10] = system: Respiratory Syncitial Virus (RSV); experiment: Antiviral activity against RSV (CPE inhibition / neutral red); assay type: cell-based
[11] = system: uninfected cells; remark: listed apart in the source
[12] = system: Influenza B; experiment: microbe, parasite or virus in culture; assay type: cell-based; settings: for IC50: Influenza B virus
[13] = system: HIVROJO; experiment: Anti-HIV activity against HIVROJO in PBMCs; assay type: cell-based; settings: for IC50: Human immunodeficiency virus 1, PBMC, read-out: HIVROJO (PBMCs) IC50
[14] = system: uninfected cells; remark: listed apart in the source
[15] = system: uninfected cells; remark: listed apart in the source
[16] = system: uninfected cells; remark: listed apart in the source
[17] = system: Influenza A; experiment: microbe, parasite or virus in culture; assay type: cell-based; settings: for IC50: Influenza A virus, read-out: INFLUENZA A IC50
[18] = system: HSV-2; experiment: Antiviral activity against HSV-2 (CPE inhibition / neutral red); assay type: cell-based, herpes simplex virus type 2; settings: HSV-2
[19] = system: uninfected cells; experiment: Cytotoxicity run with the Adenovirus test; settings: cytotoxicity, Adenovirus test
[20] = system: HCMV
[21] = Cytotoxicity run with the Influenza B test; assay type: cell-based
Method: as §1, §2, §3, §4, §5, §6, §7, §8, §9

[22] = Cytotoxicity run with the RSV test
[23] = Cytotoxicity in PBMCs (anti-HIV tests); assay type: cell-based; settings: human; PBMCs, HIVROJO
[24] = Cytotoxicity run with the Adenovirus test
[25] = Cytotoxicity run with the Influenza A test; assay type: cell-based
Method: as §1, §2, §3, §4, §5, §6, §7, §8, §9

[26] = Cytotoxicity run with the Parainfluenza test
[27] = Cytotoxicity run with the Rhinovirus test
[28] = Cytotoxicity run with the HSV-1 test
[29] = unidentified adenovirus; read-out: ADENOVIRUS IC50
[30] = human respiratory syncytial virus; read-out: RSV IC50

Row | SMILES | HIVROJO (PBMCs) CC50 [4] [µg/mL] | ADENOVIRUS IC50 ([5]; Adenovirus) [µg/mL] | HSV-1 IC50 ([6]; HSV-1) [µg/mL] | HSV-1 CC50 [7] [µg/mL] | INFLUENZA A CC50 [8] [µg/mL] | RV IC50 ([9]; Rhinovirus) [µg/mL] | RSV IC50 ([10]; RSV) [µg/mL] | RSV CC50 [11] [µg/mL] | INFLUENZA B IC50 [12] [µg/mL] | HIVROJO (PBMCs) IC50 ([13]; HIVROJO, PBMCs) [µg/mL] | PARAINFLUENZA CC50 [15] [µg/mL] | RV CC50 [16] [µg/mL] | INFLUENZA A IC50 [17] [µg/mL] | IC50 [1] [µg/mL] | CC50 [21] [µg/mL] | IC50 [3] [µg/mL] | CC50 [22] [µg/mL] | CC50 [23] [µg/mL] | CC50 [24] [µg/mL] | CC50 [25] [µg/mL] | other results
1 | CCCOc1ccccc1CNC(=O)c1ccc2cnccc2n1 [#26, N-(2-propoxybenzyl)-2-[1,6]naphthyridine-2-carboxamide] | 6.0 | 4 | 0.36 | 3.2 | 5.6 | < 0.01 | 4 | 3 | 3.2 | 4.1 | 2 | 4 | 5.6 | – | – | – | – | – | – | – | PARAINFLUENZA IC50 [1]: 4 µg/mL; INFLUENZA B CC50 [2]: 5.6 µg/mL; HIVTEKI (PBMCs) IC50 [3]: 0.3 µg/mL; HSV-2 CC50 [14]: 1.9 µg/mL; HSV-2 IC50 [18]: 0.19 µg/mL
2 | COc1ccccc1CNC(=O)C1=Cc2ccncc2CC1 [#32, 7,8-dihydroisoquinolin-6-carboxylic acid 2′-methoxybenzylamide] | >64 | > 100 | 5.5 | 14 | 67 | 10 | 50 | 30 | 56 | 45 | 20 | 25 | 60 | – | – | – | – | – | – | – | HIVTEKI (PBMCs) CC50 [4]: >64 µg/mL; ADENOVIRUS CC50 [19]: 80 µg/mL; HSV-2 CC50 [14]: 29.0 µg/mL; HSV-2 IC50 [18]: 15 µg/mL
3 | CC(C)Oc1ccccc1NC(=O)Nc1ccc2cnccc2n1 [#46, 1-(2-iso-propoxy-phenyl)-3-[1,6]naphthyridin-2-yl-urea;] | >100 | > 30 | >100 | >100 | 19 | 1 | >30 | 30 | > 32 | 3.2 | 30 | > 30 | >32 | – | – | – | – | – | – | – | PARAINFLUENZA IC50 [1]: > 30 µg/mL; INFLUENZA B CC50 [2]: > 22 µg/mL; HIVTEKI (PBMCs) IC50 [3]: 4.3 µg/mL; HIVTEKI (PBMCs) CC50 [4]: >100 µg/mL; ADENOVIRUS CC50 [19]: > 30 µg/mL
4 | COc1ccccc1CNC(=O)c1nc2ccncc2s1 [#59, Thiazolo[5,4-c]pyridine-2-carboxylic acid-2-methoxybenzylamide] | – | – | – | – | – | – | – | – | – | – | – | – | – | – | – | – | – | – | – | – | HCMV IC50 [20]: ˜10 μg/ml
5 | C[C@H](NC(=O)c1nc2ccncc2s1)c1ccccc1 [#62, Thiazolo[5,4-c]pyridine-2-carboxylic acid(1(S)-phenyl-ethyl)amide] | – | – | – | – | – | – | – | – | – | – | – | – | – | – | – | – | – | – | – | – | HCMV IC50 [20]: ˜1 μg/ml
6 | C=Cc1cncc2ccc(C(=O)NCc3ccccc3OC(C)C)nc12 [#63, 8-(vinyl)-[1,6]Naphthyridine-2-carboxylic acid 2-isopropoxybenzylamine] | – | – | – | – | – | – | – | – | – | – | – | – | – | 10 (≈ 28.8 µM) | 2.4 (≈ 6.91 µM) | 4.9 (≈ 14.1 µM) | 5 (≈ 14.4 µM) | 7 (≈ 20.1 µM) | 7 (≈ 20.1 µM) | 5.6 (≈ 16.1 µM) | IC50 [5, 29]: 9 µg/mL (≈ 25.9 µM); IC50 ([9]; Rhinovirus): 2 µg/mL (≈ 5.76 µM); CC50 [26]: 8 µg/mL (≈ 23 µM); IC50 [10, 30]: 12 µg/mL (≈ 34.5 µM); IC50 [12]: 5.2 µg/mL (≈ 15 µM); IC50 ([13]; HIVROJO, PBMCs): 0.7 µg/mL (≈ 2.01 µM); CC50 [27]: 9 µg/mL (≈ 25.9 µM); IC50 [17]: 5.6 µg/mL (≈ 16.1 µM)
7 | Cc1cncc2ccc(C(=O)NCc3ccccc3OC(C)C)nc12 [#64, 8-(methyl)-[1,6]Naphthyridine-2-carboxylic acid 2-isopropoxybenzylamine] | – | – | – | – | – | – | – | – | – | – | – | – | – | 1 (≈ 2.98 µM) | 1.8 (≈ 5.37 µM) | 0.8 (≈ 2.39 µM) | 0.6 (≈ 1.79 µM) | 4.3 (≈ 12.8 µM) | 1 (≈ 2.98 µM) | 2.4 (≈ 7.16 µM) | IC50 [5, 29]: 3 µg/mL (≈ 8.94 µM); IC50 ([6]; Human alphaherpesvirus 1; read-out: HSV-1 IC50): 2 µg/mL (≈ 5.96 µM); IC50 ([9]; Rhinovirus): > 0.08 µg/mL; CC50 [26]: 1 µg/mL (≈ 2.98 µM); IC50 [10, 30]: 0.6 µg/mL (≈ 1.79 µM); IC50 [12]: 1.8 µg/mL (≈ 5.37 µM); IC50 ([13]; HIVROJO, PBMCs): 0.28 µg/mL (≈ 0.835 µM); CC50 [27]: 16 µg/mL (≈ 47.7 µM); CC50 [28]: 3.5 µg/mL (≈ 10.4 µM); IC50 [17]: 2.4 µg/mL (≈ 7.16 µM)
8 | C[C@@H](NC(=O)c1ccc2cncc(Br)c2n1)c1ccccc1 [#66, 8-Bromo-[1,6]naphthyridine-2-carboxylic acid (1-phenyl-ethyl)-amide] | – | – | – | – | – | – | – | – | – | – | – | – | – | 83 (≈ 233 µM) | 18 (≈ 50.5 µM) | 2.2 (≈ 6.18 µM) | 5 (≈ 14 µM) | 27.3 (≈ 76.6 µM) | 8 (≈ 22.5 µM) | 24 (≈ 67.4 µM) | IC50 ([5]; unidentified adenovirus, read-out: ADENOVIRUS IC50): 9 µg/mL (≈ 25.3 µM); IC50 ([6]; Human alphaherpesvirus 1, read-out: HSV-1 IC50): 1 µg/mL (≈ 2.81 µM); IC50 [9]: 0.3 µg/mL (≈ 0.842 µM); CC50 [26]: 10 µg/mL (≈ 28.1 µM); IC50 ([10]; human respiratory syncytial virus, read-out: RSV IC50): 4 µg/mL (≈ 11.2 µM); IC50 [12]: 18 µg/mL (≈ 50.5 µM); IC50 [13]: 1.4 µg/mL (≈ 3.93 µM); CC50 [27]: 3 µg/mL (≈ 8.42 µM); CC50 [28]: 20 µg/mL (≈ 56.1 µM); IC50 [17]: 56 µg/mL (≈ 157 µM)
